Experimental data from PMC10819771 (Pharmaceuticals, 2023).
Where “and” joins values, the source holds several entries; their conditions need not be identical. Equal entries are not always repeated. Where two headings read alike, the source gives them in different places.

Key:
[1] = test system: SiHa; test: MTT antiproliferative assay, SiHa; type: cell-based, human; conditions: for IC50: Homo sapiens, SiHa, MTT, 72 h, cervical cancer cells, read-out: IC50 Values (μM) ± SEM SiHa; for Selectivity Index HEK293/SiHa: IC50 HEK293 / IC50 SiHa
How it was run: (§1)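 Absorbance at 545 nm of DMSO-solubilised formazan, formed during a 4 h MTT incubation, was compared with untreated cells. Beforehand, cells had been treated for 72 h with six compound levels from 0.1 to 30.0 µM. At least two independent determinations used five parallel wells per condition.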

[2] = test system: A2780; test: MTT antiproliferative assay, A2780; type: cell-based, human; conditions: for IC50: Homo sapiens, A2780, MTT, 72 h, ovarian cancer cells, read-out: IC50 Values (μM) ± SEM A2780; for Selectivity Index HEK293/A2780: IC50 HEK293 / IC50 A2780
How it was run: as §1

[3] = test system: K562; test: MTS cell proliferation assay, K562; type: cell-based, human; conditions: for IC50: Homo sapiens, K562, 72 h, MTS, 3-day incubation, leukemia cells, read-out: IC50 Values (μM) ± SEM K562; for Selectivity Index HEK293/K562: IC50 HEK293 / IC50 K562
How it was run: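 K562 cells in RPMI 1640 with 10% FCS were exposed in quadruplicate to 0, 1, 5, 10, 20 and 50 μM compound for 1, 2 and 3 days. Viability was read by MTS conversion after 3 h at 37 °C, measured at 490 nm. CC50 after 3 days was obtained by linear regression (μM ± SD).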

[4] = test system: Fc-MYCT; test: FRET-melting, Fc-MYCT; type: binding; conditions: ligand 2 μM, DNA 0.2 μM, K+ conditions, pH 7.2
[5] = test system: FK-RAST; test: FRET-melting, FK-RAST; type: binding; conditions: ligand 2 μM, DNA 0.2 μM, 10 mM KCl, 90 mM LiCl, pH 7.2
[6] = test system: FBCL-2T; test: FRET-melting, FBCL-2T; type: binding; conditions: ligand 2 μM, DNA 0.2 μM, 10 mM KCl, 90 mM LiCl, pH 7.2
[7] = test system: BCL-2; test: Native electrospray mass spectrometry, BCL-2; type: binding; conditions: 10 µM DNA, 20 µM ligand; for Bound DNA (%) BCL-2: 100 mM ammonium acetate
Protocol: (§2) These parameters ensured a good signal intensity without disrupting noncovalent complexes, which was verified using d[G4T4G4]2 as a control. Oligonucleotides were purchased lyophilized, and RP-cartridge purified from Eurogentec (Kanaka Eurogentec, Seraing, Belgium), then buffer exchanged with ammonium acetate (5 M; Sigma-Aldrich, Saint-Quentin-Fallavier, France) using Amicon Ultra (3 K cut-off; Merck Millipore, Cork, Ireland). Sample solutions were prepared by diluting the proper volume of oligonucleotide stock solutions to reach 10 µM of DNA and 20 µM of ligand, in 100 mM ammonium acetate. The solutions were incubated for 16 h at 4 °C before analysis. Kd were calculated as already described.

[8] = test system: human telomeric sequence 24TTG; test: Native electrospray mass spectrometry, 24TTG; type: binding; conditions: 10 µM DNA, 20 µM ligand; for Bound DNA (%) 24TTG: 100 mM ammonium acetate
Protocol: as §2

[9] = test system: ds26; test: Native electrospray mass spectrometry, duplex control ds26; type: binding; conditions: 10 µM DNA, 20 µM ligand; for Bound DNA (%) ds26: 100 mM ammonium acetate, hairpin duplex control
Protocol: as §2

[10] = test system: 24TTG (DNA, G4) TTGGGTTAGGGTTAGGGTTAGGGA; test: native ESI-MS; conditions: 100 mM NH4+ (ammonium acetate), pH 6.8, 10 µM DNA, 20 µM ligand, first of two successive steps
[11] = test system: c-MYC (DNA, G4) TGAGGGTGGGTAGGGTGGGTAA; test: native ESI-MS; conditions: 100 mM NH4+ (ammonium acetate), pH 6.8, 10 µM DNA, 20 µM ligand, first of two successive steps
[12] = test system: ds26 (DNA, duplex) CAATCGGATCGAATTCGATCCGATTG; test: native ESI-MS; conditions: 100 mM NH4+ (ammonium acetate), pH 6.8, 10 µM DNA, 20 µM ligand, first of two successive steps
[13] = first binding event (1:1 complex), read-out: Kd1 BCL-2
[14] = second binding event (2:1 complex), read-out: Kd2 BCL-2
[15] = first binding event (1:1 complex), read-out: Kd1 24TTG
[16] = second binding event (2:1 complex), read-out: Kd2 24TTG
[17] = first binding event, read-out: Kd1 ds26
[18] = second binding event, read-out: Kd2 ds26

SMILES | IC50 [1] | Selectivity Index HEK293/SiHa [1] | IC50 [2] | Selectivity Index HEK293/A2780 [2] | IC50 [3] | Selectivity Index HEK293/K562 [3] | ΔT1/2 (°C) Fc-MYCT [4] | ΔT1/2 (°C) FK-RAST [5] | ΔT1/2 (°C) FBCL-2T [6] | Bound DNA (%) BCL-2 [7] | Kd [7, 13] | Kd [7, 14] | Bound DNA (%) 24TTG [8] | Kd [8, 15] | Kd [8, 16] | Bound DNA (%) ds26 [9] | Kd [9, 17] | Kd [9, 18] | further results
CN(C)CCCNCc1ccc(-c2nc(-c3ccc(CNCCCN(C)C)cc3)c3cc(-c4ccccc4)ccc3n2)cc1 [Compound 12b, 2,4-bis{4-[(3-dimethylaminopropyl)aminomethyl]phenyl}-6-phenylquinazoline] | 1.08 ± 0.1 µM | >27.8 | 1.2 ± 0.27 µM | >25.0 | 14 ± 0.3 µM | >2.14 | 5.8 ± 0.9 °C | 17.4 ± 0.6 °C | 8.9 ± 0.7 °C | 79% | 5.6 µM | 2.8 µM | 77% | 9.5 µM | 1.5 µM | 48% | 17 µM | 130 µM | Kd1 ([10]; Kd2 1.5, cooperative): 9.5 µM; Kd1 ([11]; Kd2 100): 5.8 µM; Kd1 ([12]; Kd2 130): 17 µM
CN1CCN(CCCCNCc2ccc(-c3nc(-c4ccc(CNCCCCN5CCN(C)CC5)cc4)c4cc(-c5ccccc5)ccc4n3)cc2)CC1 [Compound 12e, 2,4-bis{4-[(4-(4-methylpiperazin-1-yl)butyl)aminomethyl]phenyl}-6-phenylquinazoline] | 0.63 ± 0.05 µM | – | 2.19 ± 0.41 µM | – | 13 ± 0.2 µM | – | 19.5 °C and 19.5 ± 1.0 °C | 33.1 °C and 33.1 ± 2.1 °C | 22.7 °C and 22.7 ± 0.4 °C | 79% | 6.2 µM | 2.2 µM | 72% | 14 µM | 1.9 µM | 36% | 30 µM | 280 µM | Kd1 ([10]; Kd2 1.9, cooperative): 14 µM; Kd1 ([11]; Kd2 74): 4.3 µM; Kd1 ([12]; Kd2 280): 30 µM
CN(C)CCCNCc1ccc(-c2cc(-c3ccc(CNCCCN(C)C)cc3)c3cc(-c4ccccc4)ccc3n2)cc1 [Compound 13a, 2,4-bis{4-[(3-dimethylaminopropyl)aminomethyl]phenyl}-6-phenylquinoline] | 0.99 ± 0.15 µM | >30.3 | 0.9 ± 0.04 µM | >33.3 | 10 ± 0.4 µM | >3.0 | 7.3 ± 1.0 °C | 15.0 ± 0.3 °C | 7.7 ± 0.6 °C | 92% | 1.6 µM | 0.75 µM | 81% | 3.7 µM | 7.1 µM | 53% | 14 µM | 95 µM | Kd1 ([10]; Kd2 7.1): 3.7 µM; Kd1 ([11]; Kd2 36): 3.8 µM; Kd1 ([12]; Kd2 95): 14 µM
CN1CCN(CCCCNCc2ccc(-c3cc(-c4ccc(CNCCCCN5CCN(C)CC5)cc4)c4cc(-c5ccccc5)ccc4n3)cc2)CC1 [Compound 13d, 2,4-bis{4-[(4-(4-methylpiperazin-1-yl)butyl)aminomethyl]phenyl}-6-phenylquinoline] | 1.11 ± 0.37 µM | – | 2.1 ± 0.09 µM | – | 14 ± 0.3 µM | – | 10.6 ± 0.7 °C | 12.7 ± 2.2 °C | 5.0 ± 1.1 °C | 33% | 53 µM | 20 µM | 39% | 29 µM | 83 µM | 18% | 85 µM | 460 µM | Kd1 ([10]; Kd2 83): 29 µM; Kd1 ([11]; Kd2 440): 20 µM; Kd1 ([12]; Kd2 460): 85 µM
